Test results published in US20100184178A1, “INCREASED ISOPRENE PRODUCTION USING MEVALONATE KINASE AND ISOPRENE SYNTHASE” (priority 2008, published 2010).

Assays:
Escherichia coli BL21 = experiment: Growth inhibition of Escherichia coli BL21 expressing MVK, PMK, MDD and fed MVA; format: cell-based; settings: 5.8 mM MVA
Description: FIG. 145 is a graph of growth curves for cultures of BL21 expressing MVK, circles; MVK+PMV, triangles; MVK+PMV+MDD, squares. Cultures were either fed 5.8 mM MVA, filled symbols, or grown without addition of MVA, open symbols. Y-axis is OD600. Samples were taken for analysis at times indicated by the arrow. Numbers above the arrows correspond to E. coli BL21 cells bearing pTrcK, representing a plasmid expressing MVK (#5), pTrcKK representing a plasmid expressing MVK plus PMK (#7), and pTrcKKD, representing a plasmid expressing MVK plus PMK plus MDD (#6) were grown.
The purpose of this experiment was to determine the effect of the expression of the proteins mevalonate kinase (MVK), phophomevalonate kinase (PMK), and diphosphomevalonate decarboxylase (MDD) of Escherichia coli cultures.
E. coli BL21 cells bearing pTrcK, representing a plasmid expressing MVK, pTrcKK representing a plasmid expressing MVK plus PMK, and pTrcKKD, representing a plasmid expressing MVK plus PMK plus MDD were grown at approximately 30° C. and 250 rpm in 250 mL flasks containing 25 mL of TM3 medium (13.6 g K2PO4, 13.6 g KH2PO4, 2.0 g MgSO4*7H2O) supplemented with 1% glucose and 0.8 g/L Biospringer yeast extract (1% Yeast extract final). When OD600 reached 0.8 to 0.9, 5.8 mM mevalonic acid was added to the cultures and incubation was continues for an additional 5 hours. OD600 measurements were taken, and the cultures were sampled for metabolite analysis at 2 hours post MVA addition. Samples were collected into 100% MeOH prechilled in dry ice in a ratio of 1:1. Samples were stored at −80° C. until analyzed as follows. The methanol-quenched cells were pelleted by centrifugation and the resulting supernatant was loaded onto Strata-X-AW anion exchange column (Phenomenex) containing 30 mg of sorbent. The pellet was reextracted twice with several milliliters of 50%, v/v, aqueous methanol containing 20% ammonium bicarbonate buffer (pH=8.0) and then with 75%, v/v, aqueous bicarbonate-buffered methanol. […]

[1] = about 1 atmosphere and about 60° F.; cited from earlier work
[2] = Flammability modeling (CAFT) and experimental flammability testing of isoprene; format: physicochemical
Excerpt: Thus, computer modeling and experimental testing were used to determine the flammability limits of isoprene (such as isoprene in the presence of O2, N2, CO2, or any combination of two or more of the foregoing gases) in order to ensure process safety. The flammability envelope is characterized by the lower flammability limit (LFL), the upper flammability limit (UFL), the limiting oxygen concentration (LOC), and the limiting temperature. For a system to be flammable, a minimum amount of fuel (such as isoprene) must be in the presence of a minimum amount of oxidant, typically oxygen. The LFL is the minimum amount of isoprene that must be present to sustain burning, while the UFL is the maximum amount of isoprene that can be present. Above this limit, the mixture is fuel rich and the fraction of oxygen is too low to have a flammable mixture. The LOC indicates the minimum fraction of oxygen that must also be present to have a flammable mixture. The limiting temperature is based on the flash point of isoprene and is that lowest temperature at which combustion of isoprene can propagate. […]
The LOC was determined to be 9.5 vol % for an isoprene, O2, N2, and CO2 mixture at 40° C. and 1 atmosphere. […]
Calculated adiabatic flame temperatures (CAFT) along with a selected limit flame temperature for combustion propagation were used to determine the flammability envelope for isoprene. […]

For `C[C@@](O)(CCO)CC(=O)O` [MVA, mevalonic acid], the “growth (OD600)” value (Escherichia coli BL21; BL21 pTrcK, MVK only (strain #5)) was “No growth inhibition was observed”, the “growth (OD600)” value (Escherichia coli BL21; BL21 pTrcKK, MVK plus PMK (strain #7)) was “inhibition of growth was evident” and the “growth (OD600)” value (Escherichia coli BL21; BL21 pTrcKKD, MVK plus PMK plus MDD (strain #6)) was “additional inhibition is observed”.
For `CCO` [ethanol], the LFL [1] is listed as “about 3.3 vol %” and the LOC [1] is listed as “about 8.7 vol %”.
In the case of `C=CC(=C)C` [isoprene, 2-methyl-1,3-butadiene], the “limiting oxygen concentration (LOC)” value ([2]; isoprene, O2, N2, and CO2 mixture at 40° C. and 1 atmosphere) is reported as 9.5 vol % and the limiting temperature ([2]; lowest temperature at which combustion of isoprene can propagate) is reported as “about −54 °C”.
